From PubChem BioAssay (NCI)
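48-hour exposure; five concentrations; linearly interpolated endpoints. GI50 is the concentration that inhibits growth by half. Definition used: TGI = concentration required for complete inhibition of growth.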

Legend:
Assay in all cases: DTP human tumour cell line panel, 48 h
[1] = system: IGROV1 ovarian
[2] = system: PC-3 prostate
[3] = system: HCC-2998 colon
[4] = system: UACC-62 melanoma
[5] = system: SN12C renal
[6] = system: SK-MEL-5 melanoma
[7] = system: OVCAR-5 ovarian
[8] = system: CCRF-CEM leukemia
[9] = system: OVCAR-3 ovarian
[10] = system: A498 renal

Compound	TGI [1]	TGI [2]	TGI [3]	TGI [4]	TGI [5]	TGI [6]	TGI [7]	TGI [8]	TGI [9]	TGI [10]	GI50 [1]	GI50 [2]	GI50 [3]	GI50 [5]	GI50 [7]	GI50 [8]	GI50 [9]	GI50 [10]	GI50 [4]	GI50 [6]
COc1ccc2c(-c3csc(-c4c[nH]c5ccccc45)n3)c[nH]c2c1	> 58.2 µM	39.9 µM	30.4 µM	> 94.8 µM	35.9 µM	30.6 µM	> 50.7 µM	> 63.3 µM	51.7 µM	21.6 µM										
O=c1cc(-c2ccccc2)[nH]c2c(F)ccc(F)c12	> 100 µM			> 100 µM	> 100 µM	> 100 µM	> 100 µM	> 100 µM												
COc1ccc(C2=C(N)c3cc(OC)ccc3C2=O)cc1	> 100 µM	> 100 µM	> 100 µM	> 100 µM	> 100 µM	> 100 µM	> 100 µM		> 100 µM	> 100 µM										
C=C1CC2C[C@H](OS(=O)(=O)c3ccc(C)cc3)C(C1)N2C (stereo partly drawn)	> 100 µM	> 100 µM	> 100 µM	> 100 µM	> 100 µM	> 100 µM		> 100 µM	> 100 µM											
COc1ccc(Nc2ccnc3cc(Cl)ccc23)cc1CN(CCCl)CCCl	4.19 µM	> 100 µM	4.54 µM		6 µM		5.94 µM		6.04 µM	6.47 µM	1.31 µM	2.05 µM	1.68 µM	1.24 µM	2.84 µM	0.664 µM	1.95 µM	2.12 µM		
Cc1cccc(-c2cc(=O)c3cc(C)cnc3[nH]2)c1	> 100 µM	> 56.9 µM	6.82 µM	> 100 µM	> 94.6 µM	21 µM	> 100 µM	36.9 µM		> 24.2 µM										
CC1CN=C(N(C(=O)Nc2ccccc2)C2CCCCC2)S1 (stereo not drawn)	35.6 µM	31.3 µM	34.6 µM		31.2 µM	28.4 µM	28.9 µM	53.7 µM	31.8 µM	34.7 µM										
Cc1nc2cccc(F)c2c(=O)n1-c1nnc(C2CC2)s1	> 10 µM	> 10 µM	> 10 µM	> 10 µM	> 10 µM	> 10 µM	> 10 µM	> 10 µM	> 10 µM											
CN(C)CC(C)(C)C(=O)/C=C/c1ccccc1	59.7 µM			26.5 µM	33.7 µM	30.1 µM		23.2 µM	40.5 µM	39.5 µM										
CC(=O)c1nc(C#N)c(N)o1	> 100 µM	> 100 µM	> 100 µM	> 100 µM	> 100 µM		> 100 µM	> 100 µM	> 100 µM	> 100 µM										
H-KIFKKFKTIIKKVWRIFGRF-NH2			7.68 µM	4.92 µM		5.8 µM	4.28 µM	> 100 µM	5.01 µM				2.65 µM		2.1 µM	2.53 µM	2.14 µM		2.03 µM	2.3 µM
COc1ccc(C2CCc3c(cnc4nc(N)nc(N)c34)C2)cc1 (stereo not drawn)	> 100 µM	> 100 µM	> 100 µM	> 100 µM	> 100 µM	> 100 µM	> 100 µM		> 100 µM	> 100 µM										
COc1nc2ncc([C@@H](O)[C@H](O)CO)nc2c(=O)[nH]1	> 100 µM	> 100 µM		> 100 µM	> 100 µM	> 100 µM	> 100 µM	> 100 µM	> 100 µM	> 100 µM										
CC1CC2OC(=N)C1(C#N)C2(C#N)C#N (stereo not drawn)	51.4 µM	71.7 µM	34.4 µM	> 100 µM	33.6 µM	22.2 µM	48.5 µM	44.3 µM		42 µM										
N#CC(NNC(=O)c1c(Cl)c(Cl)c(Cl)c(Cl)c1-c1nc2ccc(C(=O)c3ccccc3)cc2[nH]1)c1cccc(Oc2ccccc2)c1 (stereo not drawn)	93.1 µM	54 µM			67.2 µM	38.5 µM	80.3 µM	29 µM	> 100 µM	63.4 µM										
COC1OC(=O)C(OC)C(OC)C1OC (stereo not drawn)	> 100 µM	> 100 µM	> 100 µM	> 100 µM	> 100 µM	> 100 µM	> 100 µM		> 100 µM	> 100 µM										
CCOC(=O)CCC1(C(=O)O[C@@H]2C[C@H](C)CC[C@H]2C(C)C)CCCCC1=O (stereo partly drawn)	> 100 µM	> 100 µM		> 100 µM	> 100 µM	> 100 µM	> 100 µM	> 100 µM	> 100 µM	> 100 µM										
Cc1nc2ccccc2nc1N1CCCC1	> 100 µM	> 100 µM	> 100 µM	> 100 µM	> 100 µM	> 100 µM	> 100 µM			> 100 µM										
O=C(CSCC(=O)N/N=C\c1cccc(Br)c1)N/N=C\c1cccc(Br)c1	47 µM	38.1 µM		29.4 µM	35.2 µM	42.3 µM	33.6 µM		26.6 µM											
Oc1[nH]c2ccccc2c1N=NC(=S)NCc1ccccn1	13.9 µM	17.5 µM	16.5 µM	2.6 µM	14.5 µM	12 µM	22.7 µM		15.3 µM	7.51 µM										
CC(C)(C)C1=CC(O)(c2c3ccccc3c(C3(O)C=C(C(C)(C)C)C(=O)C(C(C)(C)C)=C3)c3ccccc23)C=C(C(C)(C)C)C1=O	> 100 µM	> 100 µM		> 100 µM	> 100 µM	> 100 µM	> 100 µM	> 100 µM	> 100 µM	0.65 µM										
Cc1cnc2cc(Cl)ccc2c1SCC(=O)O	> 100 µM	> 100 µM		> 100 µM	> 100 µM	> 100 µM	> 100 µM	> 100 µM	> 100 µM	> 100 µM										
